The structures appear in SMILES notation. Calls of active or inactive are those of the source. No cut-off for these calls is given here.

Common to all, as to type: functional, cell-based
In assay [1] the test system is A549. The assay is described as follows: Cytotoxicity against human A549 cells at 10 to 100 uM after 48 hrs by MTT assay. (Tetrazolium assays rely on reduction of a dye to a coloured formazan, in cell work by metabolically active cells.)
Assay [2] deals with MCF7. The assay is described as follows: Cytotoxicity against human MCF7 cells at 10 to 100 uM after 48 hrs by MTT assay.
The subject of another assay is HCT-116. The assay is described as follows: Cytotoxicity against human HCT116 cells at 10 to 100 uM after 48 hrs by MTT assay.
The subject of assay [3] is HT-29. The assay is described as follows: Cytotoxicity against human HT-29 cells at 10 to 100 uM after 48 hrs by MTT assay.
For assay [4], the system named is HT-29. The assay is described as follows: Cytotoxicity against human HT-29 cells after 48 hrs by MTT assay.
Assay [5] deals with A549. The assay is described as follows: Cytotoxicity against human A549 cells after 48 hrs by MTT assay.
The test system of assay [6] is MCF7. The assay is described as follows: Cytotoxicity against human MCF7 cells after 48 hrs by MTT assay.

For `COc1cc(O)cc(C=O)c1`, the result in the assay on A549 [1], in the assay on MCF7 [2], with HCT-116 and with HT-29 [3] was Active.
Turning to `COc1cc(/C=C\C=O)ccc1O`, the result with A549 [1], with MCF7 [2], with HCT-116 and in the assay on HT-29 [3] was Active. The Activity result in the assay with HT-29 [4], in the assay with A549 [5] and in the assay with MCF7 [6] was “Dose-dependent effect” throughout.
With `COc1cc(C(=O)C(CO)c2ccc(O)c(OC)c2)ccc1O` (centres undefined), the outcome in the assay on A549 [1], in the assay with MCF7 [2], in the assay on HCT-116 and in the assay on HT-29 [3] was Active.
Regarding `O=Cc1ccc(O)cc1`, the result with A549 [1], in the assay with MCF7 [2], in the assay with HCT-116 and in the assay with HT-29 [3] was Active.
As for `COc1cc([C@H]2Oc3c(OC)cc(/C=C/C=O)cc3[C@@H]2CO)ccc1O`, the result with A549 [1], in the assay with MCF7 [2], in the assay on HCT-116 and in the assay on HT-29 [3] was Active. Also, the Activity entry in the assay on HT-29 [4], in the assay on A549 [5] and in the assay on MCF7 [6] was “Dose-dependent effect” each time.
Regarding `COc1cc([C@@H]2Oc3c(OC)cc(/C=C/C=O)cc3[C@H]2CO)ccc1O`, the result in the assay with A549 [1], in the assay on MCF7 [2], in the assay with HCT-116 and with HT-29 [3] was Active. Besides, the Activity entry in the assay on HT-29 [4], with A549 [5] and in the assay with MCF7 [6] was “Dose-dependent effect” throughout.
As to `O=C/C=C\c1ccc(O)cc1`, the outcome in the assay on A549 [1], in the assay with MCF7 [2], in the assay with HCT-116 and with HT-29 [3] was Active.
`OC[C@@H]1[C@@H](Cc2ccc(O)cc2)CO[C@H]1c1ccc(O)cc1`: the outcome in the assay with A549 [1], in the assay on MCF7 [2] and with HT-29 [3] was Active. For the same compound, the outcome in the assay with HCT-116 was inactive. For the same compound, the Activity entry with HT-29 [4], in the assay on A549 [5] and with MCF7 [6] was “Dose-dependent effect” in each case.
